Reference: the supplement of paper PMC11061612

Key:
Capivasertib = compound: C1CN(CCC1(C(=O)N[C@@H](CCO)C2=CC=C(C=C2)Cl)N)C3=NC=NC4=C3C=CN4 [Capivasertib]
In short: (§1)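 Plates with 1536 wells received cancer cell lines in 7.5 μl of DMEM/F12 or RPMI containing 10% FBS. After 24 hours at 37°C and 5% CO2, cells were dosed for 72 hours with final DMSO typically 0.2%, and viability was read by CellTiter-Glo 2.0 luminescence scaled between blank-well and DMSO-well means. The single-agent IC50 was taken from a logistic fit of the dose responses made with a non-linear mixed effects model, that logistic curve having two parameters.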

AZD8186 = compound: C[C@@H](Nc1cc(F)cc(F)c1)c1cc(C(=O)N(C)C)cc2c(=O)cc(N3CCOCC3)oc12 [AZD8186]; conditions: max 3 µM
In short: as §1

AZD1775 = compound: C=CCn1c(=O)c2cnc(Nc3ccc(N4CCN(C)CC4)cc3)nc2n1-c1cccc(C(C)(C)O)n1 [AZD1775]
In short: as §1

AZD5991 = compound: Cc1c2c(nn1C)CSCc1cc(n(C)n1)CSc1cc(c3ccccc3c1)OCCCc1c(C(=O)O)n(C)c3c-2c(Cl)ccc13 [AZD5991]; conditions: max 1 µM
In short: as §1

Crizotinib = compound: C[C@@H](Oc1cc(-c2cnn(C3CCNCC3)c2)cnc1N)c1c(Cl)ccc(F)c1Cl [Crizotinib]; conditions: max 10 µM
In short: as §1

AZD0156 = compound: CN(C)CCCOc1ccc(-c2ccc3ncc4c(c3c2)n(C2CCOCC2)c(=O)n4C)cn1 [AZD0156]
In short: as §1

Palbociclib = compound: CC(=O)c1c(C)c2cnc(Nc3ccc(N4CCNCC4)cn3)nc2n(C2CCCC2)c1=O [Palbociclib]; conditions: max 10 µM
In short: as §1

AZD6738 = compound: C[C@@H]1COCCN1C2=NC(=NC(=C2)C3(CC3)[S@](=N)(=O)C)C4=C5C=CNC5=NC=C4 [AZD6738]; conditions: max 10 µM
In short: as §1

AZD4320 = compound: CN(CC[C@H](CSC1=CC=CC=C1)NC2=C(C=C(C=C2)S(=O)(=O)NC(=O)C3=CC=C(C=C3)N4CCC(CC4)[C@H](C5=CC=CC=C5C6=CC=C(C=C6)Cl)O)S(=O)(=O)C(F)(F)F)CCO [AZD4320]; conditions: max 1 µM
In short: as §1

AZD5153 = compound: COc1nnc2ccc(N3CCC(c4ccc(OCCN5CCN(C)C(=O)[C@H]5C)cc4)CC3)nn12 [AZD5153]; conditions: max 1 µM
In short: as §1

Selumetinib = compound: Cn1cnc2c(F)c(Nc3ccc(Br)cc3Cl)c(C(=O)NOCCO)cc21 [Selumetinib]
In short: as §1

Prexasertib = compound: COc1cccc(OCCCN)c1-c1cc(Nc2cnc(C#N)cn2)n[nH]1 [Prexasertib]; conditions: max 1 µM
In short: as §1

Doxorubicin = compound: COc1cccc2c1C(=O)c1c(O)c3c(c(O)c1C2=O)C[C@@](O)(C(=O)CO)C[C@@H]3O[C@H]1C[C@H](N)[C@H](O)[C@H](C)O1 [Doxorubicin]; conditions: max 1 µM
In short: as §1

AZD7648 = compound: Cc1cc2ncnn2cc1Nc1ncc2c(n1)n(C1CCOCC1)c(=O)n2C [AZD7648]; conditions: max 10 µM
In short: as §1

SG3199 = compound: CC1=CN2[C@@H](C1)C=NC3=CC(=C(C=C3C2=O)OC)OCCCCCOC4=C(C=C5C(=C4)N=C[C@@H]6CC(=CN6C5=O)C)OC [SG3199]; conditions: max 0.001 µM
In short: as §1

Venetoclax = compound: CC1(C)CCC(CN2CCN(c3ccc(C(=O)NS(=O)(=O)c4ccc(NCC5CCOCC5)c([N+](=O)[O-])c4)c(Oc4cnc5[nH]ccc5c4)c3)CC2)=C(c2ccc(Cl)cc2)C1 [Venetoclax]; conditions: max 1 µM
In short: as §1

Olaparib = compound: O=C(c1cc(Cc2n[nH]c(=O)c3ccccc23)ccc1F)N1CCN(C(=O)C2CC2)CC1 [Olaparib]; conditions: max 10 µM
In short: as §1

Alisertib = compound: COc1cc(Nc2ncc3c(n2)-c2ccc(Cl)cc2C(c2c(F)cccc2OC)=NC3)ccc1C(=O)O [Alisertib]; conditions: max 10 µM
In short: as §1

Taselisib = compound: Cc1nc(-c2cn3c(n2)-c2ccc(-c4cnn(C(C)(C)C(N)=O)c4)cc2OCC3)n(C(C)C)n1 [Taselisib]; conditions: max 10 µM
In short: as §1

Gefitinib = compound: COc1cc2ncnc(Nc3ccc(F)c(Cl)c3)c2cc1OCCCN1CCOCC1 [Gefitinib]; conditions: max 10 µM
In short: as §1

Trametinib = compound: CC(=O)Nc1cccc(-n2c(=O)n(C3CC3)c(=O)c3c(Nc4ccc(I)cc4F)n(C)c(=O)c(C)c32)c1 [Trametinib]; conditions: max 1 µM
In short: as §1

AZD2811 = compound: CCN(CCO)CCCOc1ccc2c(Nc3cc(CC(=O)Nc4cccc(F)c4)[nH]n3)ncnc2c1 [AZD2811]; conditions: max 1 µM
In short: as §1

Lapatinib = compound: CS(=O)(=O)CCNCc1ccc(-c2ccc3ncnc(Nc4ccc(OCc5cccc(F)c5)c(Cl)c4)c3c2)o1 [Lapatinib]; conditions: max 10 µM
In short: as §1

Dasatinib = compound: CC1=C(C(=CC=C1)Cl)NC(=O)C2=CN=C(S2)NC3=CC(=NC(=N3)C)N4CCN(CC4)CCO [Dasatinib]; conditions: max 2 µM
In short: as §1

AZD1390 = compound: CC(C)n1c(=O)n(C)c2cnc3cc(F)c(-c4ccc(OCCCN5CCCCC5)nc4)cc3c21 [AZD1390]; conditions: max 0.3 µM
In short: as §1

SN-38 = compound: CCc1c2c(nc3ccc(O)cc13)-c1cc3c(c(=O)n1C2)COC(=O)[C@]3(O)CC [SN-38]; conditions: max 0.3 µM
In short: as §1

Savolitinib = compound: C[C@@H](c1ccc2nccn2c1)n1nnc2ncc(-c3cnn(C)c3)nc21 [Savolitinib]; conditions: max 1 µM
In short: as §1

Cell Line	IC50, cell viability 72 h (Capivasertib; max 10 µM) [µM]	IC50, cell viability 72 h (AZD8186) [nM]	IC50, cell viability 72 h (AZD1775; max 3 µM) [nM]	IC50, cell viability 72 h (AZD5991) [nM]	IC50, cell viability 72 h (Crizotinib) [µM]	IC50, cell viability 72 h (AZD0156; max 3 µM) [nM]	IC50, cell viability 72 h (Palbociclib) [µM]	IC50, cell viability 72 h (AZD6738) [µM]	IC50, cell viability 72 h (AZD4320) [nM]	IC50, cell viability 72 h (AZD5153) [nM]	IC50, cell viability 72 h (Selumetinib; max 10 µM) [µM]	IC50, cell viability 72 h (Prexasertib) [nM]	IC50, cell viability 72 h (Doxorubicin) [nM]	IC50, cell viability 72 h (AZD7648) [µM]	IC50, cell viability 72 h (SG3199) [nM]	IC50, cell viability 72 h (Venetoclax) [nM]	IC50, cell viability 72 h (Olaparib) [µM]	IC50, cell viability 72 h (Alisertib) [nM]	IC50, cell viability 72 h (Taselisib) [µM]	IC50, cell viability 72 h (Gefitinib) [µM]	IC50, cell viability 72 h (Trametinib) [nM]	IC50, cell viability 72 h (AZD2811) [nM]	IC50, cell viability 72 h (Lapatinib) [µM]	IC50, cell viability 72 h (Dasatinib) [nM]	IC50, cell viability 72 h (AZD1390) [nM]	IC50, cell viability 72 h (SN-38) [nM]	IC50, cell viability 72 h (Savolitinib) [nM]	IC50, cell viability 72 h (Capivasertib; max 3 µM) [µM]	IC50, cell viability 72 h (AZD1775; max 1 µM) [nM]	IC50, cell viability 72 h (AZD0156; max 1 µM) [nM]	IC50, cell viability 72 h (Selumetinib; max 3 µM) [µM]
NCI-H1563 (Lung Adenocarcinoma)	> 10	2270	> 3000	> 1000	> 10	> 3000	> 10	> 10	> 1000	> 1000	> 10	> 1000	> 1000	> 10	> 1	> 1000	> 10	> 10000	2.48	> 10	> 1000	> 1000	> 10	1120	> 300	> 300	> 1000	–	–	–	–
BALL-1 (B-Lymphoblastic Leukemia)	7.83	> 3000	131	> 1000	5.24	> 3000	1.15	0.487	5.84	59	> 10	5.12	123	> 10	> 1	4.7	6.29	84.9	> 10	> 10	> 1000	865	> 10	> 2000	> 300	1.57	> 1000	–	–	–	–
AsPC-1 (Pancreatic Carcinoma)	> 10	> 3000	> 3000	> 1000	> 10	> 3000	> 10	> 10	> 1000	> 1000	> 10	> 1000	> 1000	> 10	> 1	> 1000	> 10	> 10000	> 10	> 10	866	> 1000	> 10	> 2000	> 300	> 300	> 1000	–	–	–	–
786-0 (Kidney Carcinoma)	4.54	> 3000	392	> 1000	> 10	> 3000	> 10	5.55	> 1000	523	> 10	28.8	571	> 10	> 1	> 1000	> 10	> 10000	> 10	> 10	> 1000	> 1000	6.48	396	> 300	23	> 1000	–	–	–	–
RL95-2 (Endometrial Carcinoma)	1.4	> 3000	490	266	> 10	> 3000	> 10	8.39	> 1000	> 1000	9.13	93.8	> 1000	> 10	> 1	> 1000	> 10	2140	> 10	> 10	540	305	> 10	> 2000	> 300	> 300	> 1000	–	–	–	–
NCI-H196 (Small Cell Lung Carcinoma)	> 10	> 3000	2110	> 1000	> 10	> 3000	> 10	> 10	> 1000	> 1000	> 10	170	> 1000	> 10	> 1	> 1000	> 10	> 10000	> 10	> 10	> 1000	> 1000	> 10	> 2000	> 300	> 300	> 1000	–	–	–	–
RPMI-8866 (Chronic Myelogenous Leukemia)	> 10	> 3000	349	> 1000	5.73	> 3000	2.71	0.926	362	47.6	> 10	10	125	> 10	> 1	> 1000	> 10	153	2.45	> 10	> 1000	449	> 10	1130	> 300	4.48	> 1000	–	–	–	–
Calu-6 (Non-Small Cell Lung Carcinoma)	> 10	> 3000	784	> 1000	> 10	> 3000	> 10	4.1	> 1000	> 1000	6.08	48.1	> 1000	> 10	> 1	> 1000	> 10	5690	> 10	> 10	72.4	> 1000	> 10	> 2000	> 300	93.4	> 1000	–	–	–	–
HTC-C3 (Thyroid Gland Carcinoma)	> 10	> 3000	2300	> 1000	> 10	> 3000	> 10	3.09	> 1000	130	0.941	128	> 1000	> 10	> 1	> 1000	> 10	> 10000	> 10	> 10	31.8	> 1000	> 10	128	> 300	> 300	> 1000	–	–	–	–
Caov-3 (Ovarian Carcinoma)	–	> 3000	–	> 1000	–	–	–	2.74	> 1000	–	–	35.5	316	> 10	> 1	> 1000	> 10	30.5	5.61	–	> 1000	48.7	–	–	–	5.51	–	> 3	453	> 1000	> 3
AN3-CA (Endometrial Carcinoma)	1.65	> 3000	1290	> 1000	> 10	> 3000	> 10	> 10	> 1000	> 1000	> 10	66.5	> 1000	> 10	> 1	> 1000	> 10	1370	0.615	> 10	> 1000	> 1000	> 10	> 2000	> 300	> 300	> 1000	–	–	–	–
RERF-LC-KJ (Lung Adenocarcinoma)	> 10	> 3000	> 3000	> 1000	> 10	> 3000	> 10	> 10	> 1000	83.7	> 10	> 1000	> 1000	> 10	> 1	> 1000	> 10	> 10000	6.5	> 10	> 1000	> 1000	> 10	> 2000	> 300	240	> 1000	–	–	–	–
HSC-3 (Oral Cavity Carcinoma)	4.55	> 3000	1730	> 1000	5.82	> 3000	> 10	> 10	> 1000	123	> 10	213	> 1000	> 10	> 1	> 1000	> 10	3390	2.26	6.9	216	> 1000	2.31	877	> 300	18.5	> 1000	–	–	–	–
OVTOKO (Ovarian Carcinoma)	8.52	2650	2100	> 1000	> 10	> 3000	> 10	> 10	> 1000	948	> 10	714	> 1000	> 10	> 1	> 1000	> 10	> 10000	0.693	> 10	> 1000	> 1000	> 10	56.4	> 300	> 300	> 1000	–	–	–	–
RT4 (Bladder Carcinoma)	> 10	> 3000	2260	> 1000	> 10	> 3000	> 10	> 10	> 1000	840	> 10	> 1000	642	> 10	> 1	> 1000	> 10	2400	> 10	> 10	328	> 1000	> 10	> 2000	> 300	43.4	> 1000	–	–	–	–
SNU-175 (Colorectal Carcinoma)	> 10	> 3000	365	> 1000	4.58	> 3000	8.34	> 10	> 1000	236	> 10	761	502	> 10	> 1	> 1000	> 10	377	> 10	9.29	547	65.6	> 10	> 2000	> 300	208	> 1000	–	–	–	–
